In one test the target is T1, IL-17A-IL-17RA binding (Homo sapiens, UniProt Q96F46).
T1 construct: human IL-17RA-Fc (extracellular domain 1-322 AA fused with Fc region of human IgG1 at the C-terminus); purchased Sino Biological Inc
As to the kind of experiment: IL-17A-IL-17RA binding assay (ELISA). The following applies: for IC50: in vitro inhibition assay; for Inhibition of IL-17A-IL-17RA binding: serial dilutions of compound. On the procedure:
IL-17A-IL-17RA binding assay. ELISA plates were coated with human IL-17A or IL-17E (2 μg/ml in PBS). Human IL-17RA-Fc or human IL-17RB-Fc (150 ng/ml) were added and incubated for 1 h, followed by incubation with human HRP-conjugated anti human IgG Fc secondary antibody for 1 h. ELISA were finally developed using tetramethylbenzidine substrate.
On the technique in general: In an ELISA, binding on a coated surface is turned into a signal by an enzyme label.

For test [1], the system named is human mammary epithelial cells (HMEC). The test is described as follows: IL-17A-induced CXCL1 (Groα) production, ELISA. Type of test: cell-based. To be noted: IL-17 100 ng/ml, 24 h. An excerpt:
(§1) Reagents, cell culture and mice. Purified proteins of human IL-17A, human IL-17E (IL-25), human IL-17RA-Fc (extracellular domain 1-322 AA fused with Fc region of human IgG1 at the C-terminus), human IL-17RB-Fc (extracellular domain 1-289 AA fused with Fc region of human IgG1 at the C-terminus), human horseradish peroxidase (HRP)-conjugated IgG Fc secondary antibody were purchased from Sino Biological Inc. Human and mouse IL-17A and mouse IL-23 used for cell culture and animal injection were purchased from R&D Systems. Human mammary epithelial cells were maintained in Medium 171 plus mammary epithelial growth supplement (MEGS) purchased from Invitrogen, which contain bovine pituitary extract (BPE) (0.4% v/v), recombinant human insulin-like growth factor-I (1 μg/ml), hydrocortisone (0.5 μg/ml) and human epidermal growth factor (3 ng/ml). A549 cells were maintained in RPMI supplemented with 10% FCS and 100 U/ml penicillin and 100 μg/ml streptomycin. All mice were obtained from Jackson laboratory.
(§2) ELISA. Groα and IL-17A levels were assayed by ELISA kits (R&D systems) according to the manufacturer's instruction.

The test system of the next test is A549 cells. The test is described as follows: IL-17A-induced CXCL1 (Groα) production, ELISA. Type of test: cell-based, human. To be noted: A549, IL-17 100 ng/ml, 24 h.
Source text: as §1, §2

In test [2] the test system is IL-17F-induced gene expression. As to the kind of experiment: IL-17F-induced gene expression in epithelial cells. To be noted: data not shown. It is filed as cell-based, human.
Test [3] has as its target T2, recombinant human IL-17RA ectodomain (Homo sapiens, UniProt Q96F46).
T2 construct: The recombinant human IL-17RA ectodomain was expressed in baculovirus-infected Sf-9 cells; made in house; host or cells: baculovirus-infected Sf-9 cells
The test is described as follows: Fluorescence binding measurement (fluorescence quenching). The following applies: one-site total binding fit. On the procedure:
Fluorescence binding measurement. The recombinant human IL-17RA ectodomain was expressed in baculovirus-infected Sf-9 cells and purified as described previously. Liu et al., Nat Commun 4, 1888 (2013). The compound A18 or A0 was obtained from NCI. The purified IL-17RA protein (final concentration at 1 uM) was mixed with various concentrations of compound A0 in the solution consisting of 20 mM Tris, pH 7.5, 150 mM NaCl, and 5% DMSO in a 96-well black flat-bottom microplate (Greiner Bio-One). The reaction mixtures were incubated at room temperature at 120 rpm for 10 min, and fluorescence intensity was measured on a 2300 EnSpire Multimode Plate Reader (PerkinElmer) with excitation (265 nm) and emission (336 nm) wavelengths for A18 or with excitation (240 nm) and emission (337 nm) wavelengths for A0. The fluorescence signal (relative fluorescence intensity) was obtained by subtracting the background fluorescence of buffer and compound A0, and plotted as a function of the concentration of compound A0. The fluorescence quenching was observed as a consequence of the protein-ligand interaction at dose-dependent concentrations of compound A0, and the binding constant of compound A0 to IL-17RA was estimated by one-site total binding fit model (GraphPad Prism).

In a further test the test system is psoriasis. The following applies: patients; cited from earlier work.
A further test has as its system multiple sclerosis. The following applies: 6-month, placebo-controlled trial, 73 patients; cited from earlier work.
The mark [4] stands for this setting: read-out: IC50, IL-17A-IL-17RA binding inhibition assay.
Setting [5] is: read-out: IC50, IL-17A-IL-17RA binding assay.

Results on 7 compounds are retold here after patent US10385034B2, “Flavonoid IL-17A inhibitors” (THE CLEVELAND CLINIC FOUNDATION, priority 2014, dated 2019).

“Also recorded” adds a separate entry of the source. Like-named read-outs stand apart in the source and are kept apart here. Bounds are passed on as bounds.

T1 sequence (Q96F46 33-322): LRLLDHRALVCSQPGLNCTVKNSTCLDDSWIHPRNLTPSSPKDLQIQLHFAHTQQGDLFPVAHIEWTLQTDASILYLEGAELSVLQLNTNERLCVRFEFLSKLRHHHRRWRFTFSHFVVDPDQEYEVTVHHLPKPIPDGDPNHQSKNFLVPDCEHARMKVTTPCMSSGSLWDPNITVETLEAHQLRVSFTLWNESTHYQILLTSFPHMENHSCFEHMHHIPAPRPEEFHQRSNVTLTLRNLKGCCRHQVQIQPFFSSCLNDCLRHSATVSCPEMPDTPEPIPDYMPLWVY
T2 sequence (Q96F46 33-320 limits assumed): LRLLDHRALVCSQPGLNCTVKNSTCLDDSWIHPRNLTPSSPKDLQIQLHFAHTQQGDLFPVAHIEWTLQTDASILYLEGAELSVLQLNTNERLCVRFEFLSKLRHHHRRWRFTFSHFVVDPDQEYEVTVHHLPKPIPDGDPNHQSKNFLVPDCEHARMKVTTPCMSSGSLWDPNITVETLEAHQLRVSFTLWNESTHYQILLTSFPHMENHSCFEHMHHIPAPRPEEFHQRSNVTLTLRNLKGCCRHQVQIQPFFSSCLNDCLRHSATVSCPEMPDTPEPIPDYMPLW

Turning to `Oc1cc(O)c2ccc(-c3ccc(O)c(O)c3)[o+]c2c1` [luteolinidin, reference compound], at IL-17A-IL-17RA binding (setting [4]), the IC50 (in general, the concentration that gives 50% inhibition) amounted to 198 nM.

With `Oc1cc(O)c2c(c1)O[C@@H](c1ccc(O)c(O)c1)[C@H](O)C2` [A0, (2S,3R)-2-(3,4-dihydroxyphenyl)-3,4-dihydro-2H-chromene-3,5,7-triol], the “IL-17A-mediated CXCL1 production” value (in test [1]; in the test on A549 cells) was “greatly inhibited” in each case. Also, the IC50 on IL-17A-IL-17RA binding (setting [4]) is 956 nM. Also, at IL-17A-IL-17RA binding, the “Inhibition of IL-17A-IL-17RA binding” value was “excellent inhibition efficacy; also recorded: great inhibition efficacy”. Moreover, the IL-17F-induced gene expression entry in test [2] is “able to block”. In addition, the “Binding constant to IL-17RA” value in test [3] is recorded as “in the same range as A18”.

`O=C(O)c1ccc(O)c(O)c1` [photocatechuic acid, reference compound]: the “Inhibition of IL-17A-IL-17RA binding” value at IL-17A-IL-17RA binding was “greatly reduced inhibitory activity”.

Turning to “secukinumab: Anti-IL17A antibody (Cosentyx/secukinumab from Novartis)”, in the test with psoriasis, the “Efficacy for psoriasis” value is on record as “extreme efficacy” and the “Responding rate in psoriasis” value is “greater than 85%”. Also, in the test on multiple sclerosis, the MS-type brain lesions entry was “significantly lowered” and the Relapse rates result is reported as “trend toward reduced”.

Consider `Oc1ccc(-c2[o+]c3cc(O)cc(O)c3cc2O)cc1` [pelargonidin, reference compound], for which the concentration for half-maximal inhibition (IC50) on IL-17A-IL-17RA binding (setting [5]) is > 100000 nM.

With `OC[C@H]1O[C@@H](Oc2cc3c(O)cc(O)cc3[o+]c2-c2ccc(O)c(O)c2)[C@H](O)[C@@H](O)[C@@H]1O` [cyanidin-3-O-glucoside, reference compound], the IC50 on IL-17A-IL-17RA binding (setting [4]) turned out to be 96.4 nM.

For the compound `Oc1ccc2cc(O)c(-c3ccc(O)c(O)c3)[o+]c2c1` [A18Δ5OH], the IC50 on IL-17A-IL-17RA binding (setting [5]) is > 30000 nM.
